Experimental data published in ChEMBL document CHEMBL1201862, “PubChem BioAssay data set” (2004).
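Method: 48-hour compound exposure of cells in 96-well plates, five concentrations, linear interpolation of endpoints. GI50 is the concentration that inhibits growth by half.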 The source made the active and inactive calls. Rule as the data show it: active = GI50 up to about 1.1 µM and inactive = higher.

Assays:
Assay in all cases: NCI-60 cell line screen, 48 h
Hs-578T = system: Hs-578T
LOX IMVI = system: LOX IMVI
PC-3 = system: PC-3
TK-10 = system: TK-10
SNB-75 = system: SNB-75
EKVX = system: EKVX
HCT-15 = system: HCT-15
NCI-H226 = system: NCI-H226
OVCAR-4 = system: OVCAR-4
SK-OV-3 = system: SK-OV-3
U-251 = system: U-251
HCC 2998 = system: HCC 2998
ACHN = system: ACHN
HOP-92 = system: HOP-92
OVCAR-3 = system: OVCAR-3
MDA-N = system: MDA-N
HOP-62 = system: HOP-62
HT-29 = system: HT-29
MDA-MB-435 = system: MDA-MB-435
K562 = system: K562

Structure (SMILES)	GI50 (Hs-578T)	GI50 (LOX IMVI)	GI50 (PC-3)	GI50 (TK-10)	GI50 (SNB-75)	GI50 (EKVX)	GI50 (HCT-15)	GI50 (NCI-H226)	GI50 (OVCAR-4)	GI50 (SK-OV-3)	GI50 (U-251)	GI50 (HCC 2998)	GI50 (ACHN)	GI50 (HOP-92)	GI50 (OVCAR-3)	GI50 (MDA-N)	GI50 (HOP-62)	GI50 (HT-29)	GI50 (MDA-MB-435)	GI50 (K562)
CC1=CC(=O)/C(=C/n2c(=S)[nH]c3cc(C)ccc32)C(=O)O1	> 100 µM (inactive)	> 100 µM (inactive)	> 100 µM (inactive)	> 100 µM (inactive)	> 100 µM (inactive)	> 100 µM (inactive)	> 100 µM	> 100 µM (inactive)	73.8 µM (inactive)	> 100 µM (inactive)	> 100 µM (inactive)	> 100 µM (inactive)	> 100 µM (inactive)	> 100 µM (inactive)	> 100 µM (inactive)	> 100 µM (inactive)	> 100 µM (inactive)	> 100 µM (inactive)	> 100 µM (inactive)	–
CCOC(=O)C1=CNC2=N[C@H]3CCCC[C@@H]3N2C1=O	> 100 µM (inactive)	> 100 µM (inactive)	> 100 µM (inactive)	–	> 100 µM (inactive)	> 100 µM (inactive)	> 100 µM	> 100 µM (inactive)	> 100 µM (inactive)	> 100 µM (inactive)	> 100 µM (inactive)	> 100 µM (inactive)	> 100 µM (inactive)	> 100 µM (inactive)	> 100 µM (inactive)	> 100 µM (inactive)	–	> 100 µM (inactive)	> 100 µM (inactive)	> 100 µM (inactive)
Cc1cn([C@@H]2C[C@@H]2CO)c(=O)[nH]c1=O	> 100 µM (inactive)	> 100 µM (inactive)	> 100 µM (inactive)	> 100 µM (inactive)	> 100 µM (inactive)	> 100 µM (inactive)	> 100 µM	> 100 µM (inactive)	> 100 µM (inactive)	–	> 100 µM (inactive)	> 100 µM (inactive)	> 100 µM (inactive)	> 100 µM (inactive)	–	> 100 µM (inactive)	> 100 µM (inactive)	> 100 µM (inactive)	> 100 µM (inactive)	> 100 µM (inactive)
COc1ccccc1N1C(=O)CSC1c1cc(OC)c(OC)c(OC)c1 (stereo unspecified)	> 59.7 µM (inactive)	35.6 µM (inactive)	> 78.2 µM (inactive)	> 100 µM (inactive)	> 100 µM (inactive)	> 100 µM (inactive)	50.6 µM	> 50 µM (inactive)	> 77.8 µM (inactive)	–	31.1 µM (inactive)	> 100 µM (inactive)	> 100 µM (inactive)	50.9 µM (inactive)	> 46.3 µM (inactive)	11.9 µM (inactive)	> 100 µM (inactive)	> 100 µM (inactive)	14.7 µM (inactive)	24.9 µM (inactive)
CCOc1ccc2nc(NC(NC(=O)c3cccnc3)(C(F)(F)F)C(F)(F)F)sc2c1	> 100 µM (inactive)	–	31.7 µM (inactive)	33.9 µM (inactive)	23.3 µM (inactive)	22.6 µM (inactive)	26 µM	44 µM (inactive)	24 µM (inactive)	93.8 µM (inactive)	42.5 µM (inactive)	22.4 µM (inactive)	29.3 µM (inactive)	20.5 µM (inactive)	32.6 µM (inactive)	15.6 µM (inactive)	–	14.1 µM (inactive)	22.2 µM (inactive)	38.4 µM (inactive)
O=C(C/C(=N/O)C(=O)NC1=C(Cl)C(=O)c2ccccc2C1=O)CC(c1ccccc1)c1c(O)c2ccccc2oc1=O (stereo unspecified)	6.76 µM (inactive)	3.39 µM (inactive)	3.92 µM (inactive)	–	3.87 µM (inactive)	14.5 µM (inactive)	3.16 µM	2.48 µM (inactive)	10 µM (inactive)	39 µM (inactive)	7.69 µM (inactive)	11.9 µM (inactive)	19.8 µM (inactive)	22.3 µM (inactive)	3.88 µM (inactive)	1.72 µM (inactive)	–	4.84 µM (inactive)	2.22 µM (inactive)	16.3 µM (inactive)
COC(=O)C1(CCC(=O)N(C)c2ccccc2)NNC2C(=O)N(c3ccccc3)C(=O)C21 (stereo unspecified)	> 10 µM (inactive)	> 10 µM (inactive)	> 10 µM (inactive)	> 10 µM (inactive)	> 10 µM (inactive)	> 10 µM (inactive)	> 10 µM	> 10 µM (inactive)	> 10 µM (inactive)	> 10 µM (inactive)	> 10 µM (inactive)	> 10 µM (inactive)	> 10 µM (inactive)	> 10 µM (inactive)	> 10 µM (inactive)	> 10 µM (inactive)	> 10 µM (inactive)	> 10 µM (inactive)	> 10 µM (inactive)	–
Cc1ccc2c(c1)[nH]c(=S)n2C=C1C(=O)CC(C)(C)CC1=O	> 100 µM (inactive)	> 100 µM (inactive)	> 100 µM (inactive)	> 100 µM (inactive)	> 100 µM (inactive)	18.9 µM (inactive)	> 100 µM	> 100 µM (inactive)	> 100 µM (inactive)	> 100 µM (inactive)	> 100 µM (inactive)	> 100 µM (inactive)	> 100 µM (inactive)	> 100 µM (inactive)	> 100 µM (inactive)	> 100 µM (inactive)	> 100 µM (inactive)	> 100 µM (inactive)	> 100 µM (inactive)	–
O=C1C2=Cc3ccccc3CCN2c2ccc([N+](=O)[O-])cc21	64.6 µM (inactive)	92.7 µM (inactive)	> 100 µM (inactive)	83 µM (inactive)	> 100 µM (inactive)	21.4 µM (inactive)	58.3 µM	64 µM (inactive)	> 100 µM (inactive)	–	> 100 µM (inactive)	> 100 µM (inactive)	43.2 µM (inactive)	41.2 µM (inactive)	44.2 µM (inactive)	> 100 µM (inactive)	> 100 µM (inactive)	> 100 µM (inactive)	> 100 µM (inactive)	> 100 µM (inactive)
CC(O)C1(CNc2cc(Cl)nc(N)n2)CCC1 (stereo unspecified)	> 100 µM (inactive)	> 100 µM (inactive)	> 100 µM (inactive)	> 100 µM (inactive)	–	59.3 µM (inactive)	> 100 µM	> 100 µM (inactive)	> 100 µM (inactive)	> 100 µM (inactive)	> 100 µM (inactive)	> 100 µM (inactive)	> 100 µM (inactive)	> 100 µM (inactive)	> 100 µM (inactive)	> 100 µM (inactive)	> 100 µM (inactive)	> 100 µM (inactive)	> 100 µM (inactive)	> 100 µM (inactive)
CCOC(=O)NC(Nc1ccc([N+](=O)[O-])cc1)(C(F)(F)F)C(F)(F)F	33.9 µM (inactive)	75.3 µM (inactive)	53.1 µM (inactive)	69.8 µM (inactive)	> 100 µM (inactive)	75.5 µM (inactive)	70.6 µM	40.1 µM (inactive)	–	56.5 µM (inactive)	85.9 µM (inactive)	> 100 µM (inactive)	> 100 µM (inactive)	31.1 µM (inactive)	65.8 µM (inactive)	22 µM (inactive)	> 100 µM (inactive)	> 100 µM (inactive)	21.3 µM (inactive)	53.8 µM (inactive)
CC1=[N+]([O-])C2(CCCC2)N(O)C1(C)C	> 100 µM (inactive)	> 100 µM (inactive)	> 100 µM (inactive)	> 100 µM (inactive)	–	> 100 µM (inactive)	> 100 µM	> 100 µM (inactive)	> 100 µM (inactive)	> 100 µM (inactive)	> 100 µM (inactive)	> 100 µM (inactive)	> 100 µM (inactive)	> 100 µM (inactive)	> 100 µM (inactive)	> 100 µM (inactive)	> 100 µM (inactive)	> 100 µM (inactive)	> 100 µM (inactive)	> 100 µM (inactive)
COC(=O)c1ccc(/C=N/c2ccc(S(N)(=O)=O)cc2)cc1	38.2 µM (inactive)	33.5 µM (inactive)	> 100 µM (inactive)	> 100 µM (inactive)	58.9 µM (inactive)	> 100 µM (inactive)	> 100 µM	> 100 µM (inactive)	97.9 µM (inactive)	> 100 µM (inactive)	67 µM (inactive)	> 100 µM (inactive)	84.3 µM (inactive)	65.5 µM (inactive)	87.1 µM (inactive)	59.7 µM (inactive)	> 100 µM (inactive)	> 100 µM (inactive)	35.4 µM (inactive)	–
C[C@@H]([C@H]1CC[C@@]2(C)[C@@H]3CC[C@@H]4C(=CC3=CC[C@]12C)CC[C@H](N(C)C)C4(C)C)N(C)C [BUXAMINE A]	> 100 µM (inactive)	> 100 µM (inactive)	> 100 µM (inactive)	> 100 µM (inactive)	–	> 100 µM (inactive)	> 100 µM	> 100 µM (inactive)	> 100 µM (inactive)	> 100 µM (inactive)	> 100 µM (inactive)	> 100 µM (inactive)	> 100 µM (inactive)	> 100 µM (inactive)	> 100 µM (inactive)	> 100 µM (inactive)	> 100 µM (inactive)	> 100 µM (inactive)	> 100 µM (inactive)	> 100 µM (inactive)
Oc1cnc2c(O)cccc2c1 [JINEOL]	> 100 µM (inactive)	26.2 µM (inactive)	36.8 µM (inactive)	53.1 µM (inactive)	20.7 µM (inactive)	15.9 µM (inactive)	33.5 µM	24.2 µM (inactive)	–	32.6 µM (inactive)	48.9 µM (inactive)	43.4 µM (inactive)	27.5 µM (inactive)	41 µM (inactive)	20.6 µM (inactive)	57.1 µM (inactive)	26.7 µM (inactive)	32.7 µM (inactive)	80.2 µM (inactive)	51.3 µM (inactive)
